These results are taken from patent publication US20260132115A1, “SUBSTITUTED 3-FLUOROBENZENEPROPANOATE COMPOUND AND PREPARATION METHOD THEREFOR, PHARMACEUTICAL COMPOSITION THEREOF, AND USE THEREOF” (TIANJIN GUDUI BIO-PHARM CO., LTD., priority 2022, published 2026).

Series [1] deals with λ-Carrageenan-Induced Rat Toe Swelling. Put plainly: Anti-inflammatory effect on λ-carrageenan-induced rat toe swelling. The class given is in vivo, SD rats. As to conditions: 10 mg/kg intraperitoneal, 1 h before 1% λ-carrageenan; for inhibition in vivo at 10 mg/kg: Rattus norvegicus, ip. Here is the method: Experimental method: Male SD rats weighing 150-160 g were randomly grouped, with 10 rats in each group. The rats were intraperitoneally injected with saline, the compounds of the present disclosure, and the control drug flurbiprofen or flurbiprofen axetil respectively, all of which were administered at a dose of 10 mg/kg and a dosing volume of 10 μL/g. At 1 h after administration, 100 μL of 1% λ-carrageenan was injected into the right hind toe of each rat to induce inflammation. Afterwards, the paw volume was measured every 1 h using a paw volume meter to calculate the swelling inhibition rate.

For series [2], the system named is Dry Yeast-Induced Rat Fever Models. The series is described as follows: Antipyretic effect on dry yeast-induced fever in rats. The class given is in vivo, SD rats. The settings on record: rectal temperature, 10 mg/kg intraperitoneal, 20 min before 20% dry yeast s.c. Here is the method:
Experimental method: Male SD rats, aged 4 weeks, were randomly grouped, with 10 rats in each group. […] The rats were intraperitoneally injected with saline, the compounds of the present disclosure or the control drug flurbiprofen respectively, all of which were administered at a dose of 10 mg/kg and a dosing volume of 10 μL/g. At 20 min after administration, 20% active dry yeast suspension was injected subcutaneously. After modeling, the rectal temperatures were measured at 4 h and 8 h.

A short description of series [3]: In vivo pharmacokinetic assay in rats (gavage, plasma). As to conditions: female, Sprague Dawley, po, prototype drug in rat plasma, dose equimolar to 50 mg/kg flurbiprofen. Here is the method: Experimental method: Adult female Sprague Dawley rats, aged 8-10 weeks and weighing 200±20 g, were randomly grouped, with 3 rats in each group. Rats in each of the groups were administered by gavage at a dose of 50 mg/kg of flurbiprofen and an equimolar dose of other example compounds to 50 mg/kg of flurbiprofen, respectively. After gavage administration, blood was collected at 0.0833 […], and 24 h into sodium heparin anticoagulant tubes, respectively. The blood was collected by the following method: 250 μL of blood were collected from the orbital venous plexuses of the rats. After blood collection, the blood samples were centrifuged at 12000 rpm in a centrifuge for 5 min. All plasma was aspirated into a 1.5-mL centrifuge tube, and the plasma was stored in a refrigerator at -80° C. The pharmacokinetic parameters were determined by the external standard curve method. Sample processing: after the cryopreserved samples were removed and restored to room temperature, the samples were vortexed evenly and then diluted two folds with methanol; the sample solution was diluted 5 folds by adding a mixed extractant of 0.5% formic acid-containing acetonitrile:methanol=7:3, and subjected to vortex oscillation for 1 min. Subsequently, the resultant was centrifuged at 4° C. and 12000 rpm for 10 min, and then 5 μL of the supernatant was measured for assay. The pharmacokinetic parameters in the Examples were calculated using the Winnonlin software.

The subject of a further series is U87. Put plainly: Antitumor potency, MTT method, U87. The series is classed as cell-based. The settings on record: Homo sapiens, U-87 MG, 72 h incubation. Here is the method:
(§1) Experimental method: The antitumor potency was tested by the MTT method. Tumor cells at the logarithmic phase were collected. The concentration of the cell suspension was adjusted. 100 μL of the cell suspension was added to each well. Cell plating was carried out and the cell density was adjusted to 1000 to 10000/well (the marginal wells were filled with sterile PBS). The cells were incubated at 5% CO2 and 37° C. until the cells adhered to the wall (96-well flat-bottomed plate). Drugs of different concentration gradients were added, 100 μL per well. Four replicates were set up. Under the conditions of 5% CO2 and 37° C., the cells were incubated for 72 h and observed under an inverted microscope. The prepared MTT solution (5 mg/mL) was added to the 96-well plate, 20 μL per well, mixed well, and incubated for 4 h under the conditions of 37° C. and 5% CO2. Afterwards, the liquid in the plate was discarded. 150 μL of DMSO was added to each well and oscillated for 3 min on a microplate reader. The OD value (optical density) was detected at 490 nm.
(§2) The inhibition rate of the drug against the tumor cell growth was calculated according to the following formula: […]
For orientation: Tetrazolium dyes change colour on reduction, which living cells bring about.

The next series has as its system MM.1S. Put plainly: Antitumor potency, MTT method, MM.1S. The class given is cell-based. The settings on record: Homo sapiens, MM1.S, 72 h incubation. The procedure: as §1, §2
A further series relates to U251. Put plainly: Antitumor potency, MTT method, U251. The class given is cell-based. As to conditions: Homo sapiens, U-251, 72 h incubation. Here is the method:
as §1, §2

The subject of a further series is H460. Put plainly: Antitumor potency, MTT method, H460. The settings on record: Homo sapiens, NCI-H460, 72 h incubation. The series is classed as cell-based. Here is the method: as §1, §2
The next series has as its system Eca-109. The series is described as follows: Antitumor potency, MTT method, Eca-109. The series is classed as cell-based. The settings on record: Homo sapiens, 72 h incubation. The procedure:
as §1, §2

Another series concerns NUGC-4. Put plainly: Antitumor potency, MTT method, NUGC-4. The class given is cell-based. The settings on record: Homo sapiens, 72 h incubation. Here is the method: as §1, §2
Where [4] appears, read: 6 h, read-out: Toe Swelling Inhibition Rate at 6 h.
[5] abbreviates: 24 h, read-out: Toe Swelling Inhibition Rate at 24 h.

Where two headings read alike, the source gives them in different places. Marks after values point to notes of the source that are not given here.

Turning to `CC(C(=O)OCOC(=O)N1C[C@@H](C)O[C@@H](C)C1)c1ccc(-c2ccccc2)c(F)c1` (stereo partly shown) [Compound 3], the figures for the inhibition in vivo at 10 mg/kg in series [1] (setting [4]) and in series [1] (setting [5]) were 45.3% and 28.1%, respectively.

Take `CC(C(=O)OCOC(=O)N[C@@H](Cc1ccc(O)cc1)C(=O)O)c1ccc(-c2ccccc2)c(F)c1` (stereo partly shown) [Compound 7]: the inhibition in vivo at 10 mg/kg amounted to 47.9% in [1] (setting [4]) and 21.5% in series [1] (setting [5]).

On to `CC(OC(=O)C(C)c1ccc(-c2ccccc2)c(F)c1)OC(=O)N1CCOCC1` (stereo not shown) [Compound 9], for which, in [2], the “Temp. at 4 h After Dosing” value came out at 37.17 ± 0.23 °C and the “Temp. at 8 h After Dosing” value came out at 37.10 ± 0.37 °C.

With `CC(=O)N1CCN(C(=O)OCOC(=O)C(C)c2ccc(-c3ccccc3)c(F)c2)CC1` (stereo not shown) [Compound 15], in series [2], the “Temp. at 4 h After Dosing” value was 37.16 ± 0.16 °C and the “Temp. at 8 h After Dosing” value amounted to 37.27 ± 0.24 °C.

With `CC(C(=O)OCOC(=O)N(CCO)CCO)c1ccc(-c2ccccc2)c(F)c1` (stereo not shown) [Compound 25], in [3], the AUC – broadly, the area under the concentration-time curve, a measure of exposure – stood at 63000 ± 11800 ng·h/mL and the Cmax – broadly, the maximum level reached in the sampled fluid or tissue – worked out at 3860 ± 178 ng/mL. For the same compound, the half-life in [3] (read-out: Prototype Drug t1/2 (converted)) was 8.1 ± 4.42 h.

Regarding `CCCN(CCC)C(=O)OCOC(=O)[C@@H](C)c1ccc(-c2ccccc2)c(F)c1` [Compound 29], in series [2], the “Temp. at 4 h After Dosing” value stood at 37.12 ± 0.13 °C and the “Temp. at 8 h After Dosing” value was 37.35 ± 0.23 °C. For the same compound, the inhibition in vivo at 10 mg/kg in [1] (setting [4]) was 45.8%. For the same compound, the inhibition in vivo at 10 mg/kg in [1] (setting [5]) came out at 29.6%.

For the compound `C[C@H](C(=O)OCOC(=O)N1CCC(O)CC1)c1ccc(-c2ccccc2)c(F)c1` [Compound 31], in series [2], the “Temp. at 4 h After Dosing” value turned out to be 37.12 ± 0.30 °C and the “Temp. at 8 h After Dosing” value came out at 37.22 ± 0.30 °C. Besides, the inhibition in vivo at 10 mg/kg in series [1] (setting [4]) amounted to 45.4%. In addition, in series [1] (setting [5]), the inhibition in vivo at 10 mg/kg is 31.9%.

Regarding `CC(=O)Oc1ccccc1C(=O)OCOC(=O)C(C)c1ccc(-c2ccccc2)c(F)c1` (stereo not shown) [Compound 36], the “Temp. at 4 h After Dosing” value in series [2] stood at 37.38 ± 0.31 °C. Further, the “Temp. at 8 h After Dosing” value in [2] came out at 37.24 ± 0.16 °C. Further, the inhibition in vivo at 10 mg/kg in series [1] (setting [4]) amounted to 45.3%; in [1] (setting [5]), 28.1%.

As for `CC(C(=O)OCOC(=O)c1ccc(N(C)C)cc1O)c1ccc(-c2ccccc2)c(F)c1` (stereo not shown) [Compound 41], in series [2], the “Temp. at 4 h After Dosing” value was found to be 37.19 ± 0.35 °C and the “Temp. at 8 h After Dosing” value was 37.30 ± 0.31 °C. In addition, in [1] (setting [4]), the inhibition in vivo at 10 mg/kg was determined as 43%. For the same compound, the inhibition in vivo at 10 mg/kg in series [1] (setting [5]) is 32.2%.

In the case of `COc1cc(COC(=O)C(C)c2ccc(-c3ccccc3)c(F)c2)cc(OC)c1` (stereo not shown) [Compound 47], in [2], the “Temp. at 4 h After Dosing” value came to 37.17 ± 0.27 °C and the “Temp. at 8 h After Dosing” value was found to be 37.26 ± 0.22 °C. Further, the inhibition in vivo at 10 mg/kg in series [1] (setting [4]) was determined as 49.3%. For the same compound, the inhibition in vivo at 10 mg/kg in series [1] (setting [5]) stood at 33.9%.

Turning to `CC(C(=O)OCc1ccccc1O)c1ccc(-c2ccccc2)c(F)c1` (stereo not shown) [Compound 48], in [2], the “Temp. at 4 h After Dosing” value was found to be 37.11 ± 0.23 °C and the “Temp. at 8 h After Dosing” value turned out to be 37.21 ± 0.25 °C. For the same compound, the inhibition in vivo at 10 mg/kg in series [1] (setting [4]) worked out at 44.1%. For the same compound, the inhibition in vivo at 10 mg/kg in series [1] (setting [5]) was found to be 33.9%.

Turning to `CC(C(=O)OCOC(=O)CCCCCN1C(=O)C=CC1=O)c1ccc(-c2ccccc2)c(F)c1` (stereo not shown) [Compound 53], in series [2], the “Temp. at 4 h After Dosing” value was 37.04 ± 0.20 °C and the “Temp. at 8 h After Dosing” value was found to be 37.02 ± 0.30 °C. For the same compound, the inhibition in vivo at 10 mg/kg in [1] (setting [4]) was 69%. In addition, the inhibition in vivo at 10 mg/kg in series [1] (setting [5]) amounted to 75.2%.

In the case of `CC(C(=O)OCOC(=O)CCN1C(=O)CCC1=O)c1ccc(-c2ccccc2)c(F)c1` (stereo not shown) [Compound 55], the figures for the inhibition in vivo at 10 mg/kg in series [1] (setting [4]) and in series [1] (setting [5]) were 36.7% and 41.4%, respectively.

For the compound `CC(C(=O)OCOC(=O)CCCN1C(=O)C=CC1=O)c1ccc(-c2ccccc2)c(F)c1` (stereo not shown) [Compound 57], the values for the inhibition in vivo at 10 mg/kg in [1] (setting [4]) and in series [1] (setting [5]) were 43.8% and 43.4%, respectively.

With `CCCCN(CCCC)C(=O)OCOC(=O)C(C)c1ccc(-c2ccccc2)c(F)c1` (stereo not shown) [Compound 65], in [2], the “Temp. at 4 h After Dosing” value was 37.10 ± 0.20 °C and the “Temp. at 8 h After Dosing” value worked out at 37.24 ± 0.23 °C. In series [1] (setting [4]), the inhibition in vivo at 10 mg/kg was 43.1%. Also, the inhibition in vivo at 10 mg/kg in [1] (setting [5]) was 43.8%.

For `CCCCCCN(C)C(=O)OCOC(=O)C(C)c1ccc(-c2ccccc2)c(F)c1` (stereo not shown) [Compound 67], in series [2], the “Temp. at 4 h After Dosing” value amounted to 37.17 ± 0.19 °C and the “Temp. at 8 h After Dosing” value is 37.16 ± 0.20 °C. Further, the inhibition in vivo at 10 mg/kg in series [1] (setting [4]) was 48.6%. Further, the inhibition in vivo at 10 mg/kg in series [1] (setting [5]) came to 57.3%.

On to `CC(C)CN(CC(C)C)C(=O)OCOC(=O)C(C)c1ccc(-c2ccccc2)c(F)c1` (stereo not shown) [Compound 69], for which, in [2], the “Temp. at 4 h After Dosing” value is 37.09 ± 0.18 °C and the “Temp. at 8 h After Dosing” value is 37.13 ± 0.27 °C. The inhibition in vivo at 10 mg/kg in [1] (setting [4]) turned out to be 65.9%. In series [1] (setting [5]), the inhibition in vivo at 10 mg/kg is 70.6%.

As to `CC(C(=O)O)c1ccc(-c2ccccc2)c(F)c1` (stereo not shown) [Flurbiprofen, reference compound], the concentration for half-maximal inhibition (IC50) (usually the concentration that gives 50% inhibition) in the series on U87 is greater than 100 µM; in the series on MM.1S, greater than 100 µM; in the series on U251, 34.1 µM; in the series with H460, greater than 100 µM; in the series on Eca-109, 85.5 µM; in the series with NUGC-4, greater than 100 µM. Further, the “Temp. at 4 h After Dosing” value in series [2] came to 37.49 ± 0.43 °C. Also, in series [2], the “Temp. at 8 h After Dosing” value was 37.67 ± 0.39 °C. Further, the values for the inhibition in vivo at 10 mg/kg in series [1] (setting [4]) and in series [1] (setting [5]) were 35.5% and 29.9%, respectively.

Turning to “Flurbiprofen axetil [reference compound]”, the “Toe Swelling Inhibition Rate at 6 h” value in [1] (6 h) amounted to 35.53%**. The “Toe Swelling Inhibition Rate at 24 h” value in series [1] (24 h) came out at 22.85%**.
